Experimental data reported in patent US20170197977A9, “COMPOSITIONS AND METHODS FOR TREATING NEURODEGENERATIVE DISEASE” (COGNITION THERAPEUTICS, INC., priority 2011, published 2017).
Read-outs that look alike come from different tables or passages of the source.

Assays:
[1] = system: Abeta oligomer-induced synapse loss; experiment: Synapse loss assay (synaptophysin puncta) in primary neurons; type: cell-based, rat; details: for Abeta oligomer-induced synapse loss: in words; for Block synapse loss: Table 10B
Procedure: In this assay, Abeta oligomers were brought in contact with mature primary neurons in culture and their binding was determined by immunohistochemistry (anti-Abeta antibody) and quantified by image processing. The amount of Abeta in neuronal dendrites is assessed by counting the number of labeled puncta on the neuritis. […] This labeling is associated with synapses, co-localizing with the post-synaptic scaffold protein PSD-95 (Lacor et al., '04). […] The number of synapses can also be quantified in this assay by immunofluorochemistry. Similar procedures for binding assays can be found in the literature. […] Review.
Primary hippocampal neuronal culture was established as in the membrane trafficking assay above. […] Pretreatment with compounds to be tested lasted for 1 hr and addition of Abeta oligomers or no oligomer (vehicle alone) in a final concentration of 70 ul was followed by incubation for an additional 23 hrs.
The plates were then washed 3× with PBS for 5 min each. The plates were blocked at RT for 1 hr in 5% goat serum and 0.5% Triton X-100 in PBS. […] Primary antibodies were incubated overnight at 4° C. The plates were then washed 3× with PBS for 5 min each. […] Secondary antibodies were incubated at RT for 1 hr. The plates were washed once with PBS. DAPI (4′,6-diamidino-2-phenylindole, Invitrogen) was then applied at 0.03 ug/ul and incubated at RT for 5 min, then washed with PBS.
Images were captured and analyzed with the Cellomics VTI automated microscope platform, using the Neuronal Profiling algorithm. For statistical analysis, a Tukey-Kramer pair-wise comparison with unequal variance was used.

[2] = system: caspase-3 activity in neurons; experiment: Caspase-3 activity assay in neurons; type: cell-based
Procedure: The activation of endogenous caspase-3 by sigma-2 receptor ligands was measured using the Caspase-3 Colorimetric Activity Assay Kit (Milipore, Billerica, Mass.) according to the manufacture's protocol. Briefly, MDA-MB 435 or MDA-MB23I cells were plated at 0.5×10^6 cells 100 mm dish. 24 hours after plating, sigma-2 ligands were added to the culture dishes to induce caspase 3 activation. The final concentration of the sigma-2 ligand was its EC50. 24 hours after treatment, cells were harvested, lysed in 300 uL of Cell Lysis Buffer, and centrifuged for 5 minutes at 10,000×g. Supernatant was collected and incubated with caspase-3 substrate, DEVD-pNA, for 2 hours at 37° C. […] Compounds IXa,IXb and II behaved like sigma-2 […] in both cancer cells and neurons.

[3] = system: SKOV-3 human ovarian cancer cell line; experiment: MTS tumor cell viability assay; type: cell-based; details: for IC50: Tumor cell viability, 48 hrs; for Action: agonist/antagonist call relative to siramesine
Procedure: The cytotoxicity of compounds shown below was determined using the CellTiter96 Aqueous One Solution Assay (Promega, Madison, Wis.). […] The plate was read at 490 nm in a Victor3 plate reader (PerkinElmer Life and Analytical Sciences, Shelton, Conn.). The EC^50 value, defined as the concentration of the sigma ligand required to inhibit cell viability by 50% relative to untreated cells, was determined from the dose response curve for each cell line.

[4] = system: neuronal cultures; experiment: Nuclear intensity / morphology in neuronal cultures; details: 24 hours
[5] = system: caspase-3 activity in SKOV-3 human ovarian cancer cells; experiment: Caspase-3 activity assay in tumor cells; type: cell-based
[6] = system: Abeta oligomer-induced membrane trafficking deficits; experiment: Membrane trafficking/exocytosis (MTT) assay in mature primary hippocampal neurons; type: cell-based, rat; details: for Functional Neuronal Phenotype: Table 10B
Procedure: The present exocytosis assay was adapted for use with mature primary neuronal cultures grown for 3 weeks in vitro.
The methods used to generate the results were as follows in the Membrane Trafficking/Exocytosis (MTT) assay.
Primary hippocampal neurons from E18 Sprague-Dawley rat embryos were plated at optimized concentrations in 384 well plates in NB media (Invitrogen). Neurons were maintained in cultures for 3 weeks, with twice weekly feeding of NB media with N2 supplement (Invitrogen).
[…] MTT reagent (3-(4,5-dimethylthizaol-2yl)-2,5diphenyl tetrazolium bromide) (Roche Molecular Biochemicals) was reconstituted in phosphate buffered saline to 5 mg/mL. 10 μL of MTT labeling reagent is added to each well and incubated at 37° C. for 1 h, then imaged. Exocytosis was assessed by automated microscopy and image processing to quantify the amount of endocytosed and exocytosed formazan.
Each assay plate was formatted so that compounds are tested with and without Abeta oligomer on each plate.

[7] = system: neuronal cultures
[8] = system: sigma-2 receptor; experiment: Autoradiography, displacement of [3H]-RHM-1 in brain sections; type: binding; details: 1 μM; monkey frontal cortex, monkey hippocampus, human temporal cortex
Procedure: Brain sections in 20 μM thickness from rats, rhesus monkeys and postmortem human brains were cut using with a Microm cryotome and mounted on superfrost plus glass slides (Fisher Scientific, Pittsburgh, Pa.)., and serial sections through the brain regions of cerebral cortex and hippocampus were used in this study.
Slides were dried and made conductive by coating with a copper foil tape on the free side and then placed in the gas chamber [mixture of argon and triethylamine (Sigma-Aldrich, USA)] of a gaseous detector, the Beta Imager 2000Z Digital Beta Imaging System (Biospace, France). […] [^3H]Microscale (American Radiolabeled Chemicals, Inc., St. Louis, Mo.) was counted at the same time as a reference for total radioactivity quantitative analysis, i.e., to convert the cpm/mm2 to nCi/mg tissue. Quantitative analysis was performed with the program Beta-Image Plus (BioSpace, France) for the anatomical regions of interest (ROI), i.e., to obtain the quantitative radioactivity uptake (cpm/nlln2) in the regions of cortex and hippocampus. The binding density was normalized to fmol/mg tissue based on the specific activities of the corresponding radioligands and calibration curve from the standard [^3H]Microscale.

In the case of `O=C(CCCN1CCC(O)(c2ccc(Cl)cc2)CC1)c1ccc(F)cc1` [haloperidol, reference compound], the “Abeta oligomer-induced synapse loss” value [1] is reported as “completely eliminated synapse loss”.

With `COc1ccc(C)cc1NC(=O)OC1CC2CCCC(C1)N2CCCCCCN` (stereo not drawn) [SV-119] the “Induction of caspase-3 activity” value [2] was “activate caspase-3”, the IC50 [3] was 21.7 ± 2.9 µM and the Action [3] was “Full agonist”. The “Nuclear morphology / nuclear intensity compared to vehicle” value [4] was “caused significant abnormal nuclear morphology” and the “Induction of caspase-3 activity” value [5] was “activate caspase-3”.

With `COc1cc(CCC(C)NCc2ccc(C(F)(F)F)cc2)ccc1O` (single isomer, unassigned; (+)) [(+) enantiomer of Cpd II] the “Functional Neuronal Phenotype” value [6] was “Antagonist”, the EC50 ([6]; dose response of % vesicles against Abeta oligomer concentration, 0 uM of enantiomer (Abeta oligomer alone), read-out: EC50 against Abeta at Concentration 0 uM) was 1.19 µM and the EC50 ([6]; read-out: EC50 against Abeta at Concentration 20 uM, dose response of % vesicles against Abeta oligomer concentration, 20 uM of enantiomer) was 1.46 µM. It also gave a Block synapse loss ([1]; listed as II (+) isomer) of 47%.

In the case of `COc1ccc(C)cc1NC(=O)OC1CC2CCCC(C1)N2Cc1ccc(N(C)C)cc1` (stereo not drawn) [WC-26], the IC50 [3] is reported as 65.6 ± 6.3 µM, the Action [3] is reported as “Partial agonist” and the “Nuclear morphology / nuclear intensity compared to vehicle” value [4] is reported as “caused significant abnormal nuclear morphology”.

`COc1cc(CCC(C)NCc2ccc(C(F)(F)F)cc2)ccc1O` (single isomer, unassigned; (-)) [(−) enantiomer of Cpd II] gave an EC50 ([6]; Rattus norvegicus, Hippocampal neuron, Table 4, read-out: EC50 in screening assay using single concentration of Abeta oligomer) of 10.9 µM, an EC50 ([6]; Rattus norvegicus, Hippocampal neuron, dose response of % vesicles against Abeta oligomer concentration, 0 uM of enantiomer (Abeta oligomer alone), read-out: EC50 against Abeta at Concentration 0 uM) of 1.05 µM and an EC50 ([6]; Rattus norvegicus, Hippocampal neuron, read-out: EC50 against Abeta at Concentration 20 uM, dose response of % vesicles against Abeta oligomer concentration, 20 uM of enantiomer) of 2.82 µM. The “Functional Neuronal Phenotype” value [6] was “Antagonist” and the Block synapse loss ([1]; listed as II (−) isomer) was 0%.

For `COc1cc2c(cc1OC)CN(CCCCNC(=O)c1cc(C)ccc1OC)CC2` [RHM-1, N-[4-(3,4-dihydro-6,7-dimethoxyisoquinolin-2(1H)-yl)butyl]-2-methoxy-5-methylbenzamide], the “Induction of caspase-3 activity” value [2] was “did not induce caspase-3 activity”, the Action [3] was “Antagonist” and the “Nuclear morphology / nuclear intensity compared to vehicle” value [7] was “did not decrease nuclear intensity”. For the same compound, the “Block of caspase-3 activation caused by sigma-2 receptor agonist SV-119” value [5] was “do not block caspase-3 activation” and the “Induction of caspase-3 activity” value [5] was “did not induce caspase-3 activity”.

For `CCCN(CCC)CCc1ccc(OC)c(OCCc2ccccc2)c1` [NE-100, reference compound], the “Abeta oligomer-induced synapse loss” value [1] was “completely eliminated synapse loss”.

With “synthetic Abeta oligomer: Abeta 1-42 oligomers made according to published methods [reference compound]” the EC50 ([6]; synthetic Abeta oligomer alone, read-out: EC50 of Abeta oligomer in membrane trafficking assay) was 0.82 µM.

With `Fc1ccc(-n2cc(CCCCN3CCC4(CC3)OCc3ccccc34)c3ccccc32)cc1` [Siramesine] the “Induction of caspase-3 activity” value [2] was “induced”, the “Displacement of 18.4 nM [3H]-RHM-1” value [8] was “partially displace” and the Action [3] was “Full agonist”. The “Nuclear morphology / nuclear intensity compared to vehicle” value [4] was “caused significant abnormal nuclear morphology” and the “Induction of caspase-3 activity” value [5] was “induced caspase-3 activity”.
